According to patent US20090156577A1, “7-AMINO ALKYLIDENYL-HETEROCYCLIC QUINOLONES AND NAPHTHYRIDONES” (priority 2004, published 2009):
Values after ≈ are worked out from the molar mass of the structure shown. Structures can show the parent of a compound that is named as a salt. Where two headings read alike, the source gives them in different places.

Test system: pathogenic bacteria
Assay: MIC by microdilution broth method (NCCLS M7-A4), in vitro antibacterial activity
Assay type: cell-based
Experimental: Minimal inhibitory concentration (MIC) has been an indicator of in vitro antibacterial activity widely used in the art. The in vitro antimicrobial activity of the compounds was determined by the microdilution broth method following the test method from the National Committee for Clinical Laboratory Standards (NCCLS). This method is described in the NCCLS Document M7-A4, Vol. 17, No. 2, “Methods for Dilution Antimicrobial Susceptibility Test for Bacteria that Grow Aerobically—Fourth Edition”, which is incorporated herein by reference.
In this method two-fold serial dilutions of drug in cation adjusted Mueller-Hinton broth are added to wells in microdilution trays. The test organisms are prepared by adjusting the turbidity of actively growing broth cultures so that the final concentration of test organism after it is added to the wells is approximately 5×10^4 CFU/well.
Following inoculation of the microdilution trays, the trays are incubated at 35° C. for 16-20 hours and then read. […] The amount of growth in the wells containing the test compound is compared with the amount of growth in the growth-control wells (no test compound) used in each tray. As set forth in Table 5, compounds of the present invention were tested against a variety of pathogenic bacteria resulting in a range of activities depending on the organism tested.

[1] = Staphylococcus aureus, Organism A: Staphylococcus aureus OC4172, read-out: MIC
[2] = Streptococcus pneumoniae, ATCC49619, Organism E: Streptococcus pneumoniae ATCC 49619, read-out: MIC
[3] = Streptococcus pneumoniae, Organism C: fluoroquinolone-resistant clinical isolate of Streptococcus pneumoniae (QRDR amino acid substitutions)
[4] = Streptococcus pneumoniae, Organism D: fluoroquinolone-resistant clinical isolate of Streptococcus pneumoniae (QRDR amino acid substitutions)
[5] = Organism A: Staphylococcus aureus OC4172
[6] = Organism C: fluoroquinolone-resistant clinical isolate of Streptococcus pneumoniae (QRDR amino acid substitutions)
[7] = Organism E: Streptococcus pneumoniae ATCC 49619
[8] = Streptococcus pneumoniae, Organism B: fluoroquinolone-resistant clinical isolate of Streptococcus pneumoniae (QRDR amino acid substitutions)

SMILES: NCC(Cl)=C1CCN(c2cc3c(cc2F)c(=O)c(C(=O)O)cn3C2CC2)CC1 [Compound 65, 7-[4-(2-Amino-1-chloro-ethylidene)-piperidin-1-yl]-1-1-cyclopropyl-6-fluoro-4-oxo-1,4-dihydro-quinoline-3-carboxylic acid]
- MIC [1]: 0.03 µg/mL (≈ 0.0739 µM)
- MIC [2]: 0.12 µg/mL (≈ 0.296 µM)
- MIC [3]: 0.5 µg/mL (≈ 1.23 µM)
- MIC [4]: 1 µg/mL (≈ 2.46 µM)

SMILES: CCC(CN)=C1CCN(c2nc3c(cc2F)c(=O)c(C(=O)O)cn3C2CC2)CC1 [Compound 69, 7-[4-(1-Aminomethyl-propylidene)-piperidin-1-yl]-1-cyclopropyl-6-fluoro-4-oxo-1,4-dihydro-[1,8]naphthyridine-3-carboxylic acid]
- MIC [1]: 0.06 µg/mL (≈ 0.15 µM)
- MIC [2]: 0.25 µg/mL (≈ 0.624 µM)
- MIC [3]: 1 µg/mL (≈ 2.5 µM)
- MIC [4]: 2 µg/mL (≈ 4.99 µM)

SMILES: COc1c(N2CCC(=C(C)CN)CC2)c(F)cc2c(=O)c(C(=O)O)cn(C3CC3)c12 [Compound 70, 7-[4-(2-Amino-1-methyl-ethylidene)-piperidin-1-yl]-1-cyclopropyl-6-fluoro-8-methoxy-4-oxo-1,4-dihydro-quinoline-3-carboxylic acid]
- MIC [5]: 0.03 µg/mL (≈ 0.0722 µM)
- MIC [6]: 0.25 µg/mL (≈ 0.602 µM)
- MIC [7]: 0.12 µg/mL (≈ 0.289 µM)
- MIC [4]: 0.25 µg/mL (≈ 0.602 µM)

SMILES: CCC(CN)=C1CCN(c2c(F)cc3c(=O)c(C(=O)O)cn(C4CC4)c3c2OC)CC1 [Compound 71, 7-[4-(1-Aminomethyl-propylidene)-piperidin-1-yl]-1-cyclopropyl-6-fluoro-8-methoxy-4-oxo-1,4-dihydro-quinoline-3-carboxylic acid]
- MIC [1]: 0.03 µg/mL (≈ 0.0698 µM)
- MIC [2]: 0.12 µg/mL (≈ 0.279 µM)
- MIC [3]: 0.25 µg/mL (≈ 0.582 µM)
- MIC [4]: 0.5 µg/mL (≈ 1.16 µM)

SMILES: CNCC(Cl)=C1CCN(c2c(F)cc3c(=O)c(C(=O)O)cn(C4CC4)c3c2OC)CC1 [Compound 72, 7-[4-(1-Chloro-2-methylamino-ethylidene)-piperidin-1-yl]-1-cyclopropyl-6-fluoro-8-methoxy-4-oxo-1,4-dihydroquinoline-3-carboxylic Acid Trifluoroacetic Acid Salt]
- MIC (Staphylococcus aureus, Organism A: Staphylococcus aureus OC4172): 0.03 µg/mL
- MIC (Streptococcus pneumoniae, ATCC49619, Organism E: Streptococcus pneumoniae ATCC 49619): 0.12 µg/mL
- MIC [8]: 0.25 µg/mL
- MIC [3]: 0.5 µg/mL
- MIC [4]: 0.25 µg/mL

SMILES: NCC(Cl)=C1CCN(c2c(F)cc3c(=O)c(C(=O)O)cn(C4CC4)c3c2OC(F)F)CC1 [Compound 73, 7-[4-(2-Amino-1-chloro-ethylidene)-piperidin-1-yl]-1-cyclopropyl-8-difluoromethoxy-6-fluoro-4-oxo-1,4-dihydro-quinoline-3-carboxylic acid]
- MIC [1]: 0.06 µg/mL (≈ 0.127 µM)
- MIC [2]: 0.12 µg/mL (≈ 0.254 µM)
- MIC [8]: 0.5 µg/mL (≈ 1.06 µM)
- MIC [3]: 1 µg/mL (≈ 2.12 µM)
- MIC [4]: 0.25 µg/mL (≈ 0.53 µM)

SMILES: CNCC(C)=C1CCN(c2c(F)cc3c(=O)c(C(=O)O)cn(C4CC4)c3c2OC(F)F)CC1 [Compound 74, 1-Cyclopropyl-8-difluoromethoxy-6-fluoro-7-[4-(1-methyl-2-methylamino-ethylidene)-piperidin-1-yl]-4-oxo-1,4-dihydro-quinoline-3-carboxylic acid]
- MIC [6]: 1 µg/mL (≈ 2.15 µM)
- MIC [7]: 0.12 µg/mL (≈ 0.258 µM)
- MIC [1]: 0.06 µg/mL (≈ 0.129 µM)
- MIC [4]: 0.25 µg/mL (≈ 0.537 µM)

SMILES: CCNCC(Cl)=C1CCN(c2c(F)cc3c(=O)c(C(=O)O)cn(C4CC4)c3c2OC)CC1 [Compound 75, 7-[4-(1-Chloro-2-ethylamino-ethylidene)-piperidin-1-yl]-1-cyclopropyl-6-fluoro-8-methoxy-4-oxo-1,4-dihydro-quinoline-3-carboxylic acid]
- MIC [1]: 0.12 µg/mL (≈ 0.259 µM)
- MIC [2]: 0.25 µg/mL (≈ 0.539 µM)
- MIC [8]: 1 µg/mL (≈ 2.16 µM)
- MIC [3]: 1 µg/mL (≈ 2.16 µM)
- MIC [4]: 1 µg/mL (≈ 2.16 µM)

SMILES: NCC(Cl)=C1CCN1c1cc2c(cc1F)c(=O)c(C(=O)O)cn2C1CC1 [Compound 76, 7-[4-(2-Amino-1-chloro-ethylidene)-azetidin-1-yl}-1-cyclopropyl-6-fluoro-4-oxo-1,4-dihydro-quinoline-3-carboxylic acid]
- MIC [1]: 0.03 µg/mL (≈ 0.0794 µM)
- MIC [2]: 0.25 µg/mL (≈ 0.662 µM)
- MIC [8]: 2 µg/mL (≈ 5.29 µM)
- MIC [3]: 1 µg/mL (≈ 2.65 µM)
- MIC [4]: 2 µg/mL (≈ 5.29 µM)

SMILES: C[C@H]1COc2c(N3CC(=C(Cl)CN)C3)c(F)cc3c(=O)c(C(=O)O)cn1c23 [Compound 77, 9-[3-(2-Amino-1-chloro-ethylidene)-azetidin-1-yl}-8-fluoro-(3S)-3-methyl-6-oxo-2,3-dihydro-6H-1-oxa-3a-aza-phenalene-5-carboxylic acid]
- MIC [1]: 0.12 µg/mL (≈ 0.305 µM)
- MIC [2]: 1 µg/mL (≈ 2.54 µM)
- MIC [8]: 8 µg/mL (≈ 20.3 µM)
- MIC [3]: 16 µg/mL (≈ 40.6 µM)
- MIC [4]: 16 µg/mL (≈ 40.6 µM)

SMILES: COc1c(N2CCC(=C(F)CN)C(C)(C)C2)c(F)cc2c(=O)c(C(=O)O)cn(C3CC3)c12 [Compound 78, 7-[4-(2-Amino-1-fluoro-ethylidene)-3,3-dimethyl-piperidin-1-yl]-1-cyclopropyl-6-fluoro-8-methoxy-4-oxo-1,4-dihydro-quinoline-3-carboxylic acid]
- MIC [1]: 1 µg/mL (≈ 2.23 µM)
- MIC [2]: 0.25 µg/mL (≈ 0.559 µM)
- MIC [8]: 2 µg/mL (≈ 4.47 µM)
- MIC [3]: 1 µg/mL (≈ 2.23 µM)

SMILES: CNCC(C)=C1CCN(c2nc3c(cc2F)c(=O)c(C(=O)O)cn3C2CC2)CC1 [Compound 79, 1-Cyclopropyl-6-fluoro-7-[4-(1-methyl-2-methylamino-ethylidene)-piperidin-1-yl]-4-oxo-1,4-dihydro-[1,8]naphthyridine-3-carboxylic acid]
- MIC [5]: 0.06 µg/mL (≈ 0.15 µM)
- MIC [2]: 0.25 µg/mL (≈ 0.624 µM)
- MIC [3]: 2 µg/mL (≈ 4.99 µM)
- MIC [4]: 1 µg/mL (≈ 2.5 µM)

SMILES: NCC(F)=C1CN(c2nc3c(cc2F)c(=O)c(C(=O)O)cn3C2CC2)C1 [Compound 80, 7-[3-(2-Amino-1-fluoro-ethylidene)-azetidin-1-yl]-1-cyclopropyl-6-fluoro-4-oxo-1,4-dihydro-[1,8]naphthyridine-3-carboxylic acid]
- MIC [1]: 0.06 µg/mL (≈ 0.166 µM)
- MIC [2]: 0.12 µg/mL (≈ 0.331 µM)
- MIC [8]: 0.5 µg/mL (≈ 1.38 µM)
- MIC [3]: 2 µg/mL (≈ 5.52 µM)
- MIC [4]: 1 µg/mL (≈ 2.76 µM)

SMILES: NCC(Cl)=C1CN(c2nc3c(cc2F)c(=O)c(C(=O)O)cn3C2CC2)C1 [Compound 81, 7-[3-(2-Amino-1-chloro-ethylidene)-azetidin-1-yl}-1-cyclopropyl-6-fluoro-4-oxo-1,4-dihydro-[1,8]naphthyridine-3-carboxylic acid]
- MIC [1]: 0.06 µg/mL (≈ 0.158 µM)
- MIC [2]: 0.25 µg/mL (≈ 0.66 µM)
- MIC [8]: 1 µg/mL (≈ 2.64 µM)
- MIC [3]: 2 µg/mL (≈ 5.28 µM)
- MIC [4]: 2 µg/mL (≈ 5.28 µM)

SMILES: NCC(F)=C1CN(c2c(F)cc3c(=O)c(C(=O)O)cn(C4CC4)c3c2OC(F)F)C1 [Compound 160, 7-[3-(2-Amino-1-fluoro-ethylidene)-azetidin-1-yl]-1-cyclopropyl-8-difluoromethoxy-6-fluoro-4-oxo-1,4-dihydro-quinoline-3-carboxylic acid]
- MIC [1]: 0.06 µg/mL (≈ 0.14 µM)
- MIC [2]: 0.12 µg/mL (≈ 0.281 µM)
- MIC [8]: 2 µg/mL (≈ 4.68 µM)
- MIC [3]: 2 µg/mL (≈ 4.68 µM)
- MIC [4]: 1 µg/mL (≈ 2.34 µM)

SMILES: O=C(O)c1cn(C2CC2)c2nc(N3CCC(=CCO)CC3)c(F)cc2c1=O [Compound 163, 1-Cyclopropyl-6-fluoro-7-[4-(2-hydroxy-ethylidene)-piperidin-1-yl]-4-oxo-1,4-dihydro-[1,8]naphthyridine-3-carboxylic acid]
- MIC [1]: 0.12 µg/mL (≈ 0.321 µM)
- MIC [2]: 1 µg/mL (≈ 2.68 µM)
- MIC [8]: 4 µg/mL (≈ 10.7 µM)
- MIC [3]: 4 µg/mL (≈ 10.7 µM)

SMILES: O=C(O)c1cn(C2CC2)c2cc(N3CCC(=CCO)CC3)c(F)cc2c1=O [Compound 164, 1-Cyclopropyl-6-fluoro-7-[4-(2-hydroxy-ethylidene)-piperidin-1-yl]-4-oxo-1,4-dihydro-quinoline-3-carboxylic acid]
- MIC [1]: 0.12 µg/mL (≈ 0.322 µM)
- MIC [2]: 2 µg/mL (≈ 5.37 µM)
- MIC [8]: 32 µg/mL (≈ 85.9 µM)
- MIC [3]: > 32 µg/mL

SMILES: CC(C)NCC(Cl)=C1CCN(c2nc3c(cc2F)c(=O)c(C(=O)O)cn3C2CC2)CC1 [Compound 166, 7-[4-(1-Chloro-2-isopropylamino-ethylidene)-piperidin-1-yl]-1-cyclopropyl-6-fluoro-4-oxo-1,4-dihydro-[1,8]naphthyridine-3-carboxylic acid]
- MIC [1]: 0.5 µg/mL (≈ 1.11 µM)
- MIC [2]: 1 µg/mL (≈ 2.23 µM)
- MIC [3]: 4 µg/mL (≈ 8.91 µM)
- MIC [4]: 4 µg/mL (≈ 8.91 µM)

SMILES: O=C(O)c1cn(C2CC2)c2nc(N3CCC(=C(F)CO)CC3)c(F)cc2c1=O [Compound 172, 1-Cyclopropyl-6-fluoro-7-[4-(1-fluoro-2-hydroxy-ethylidene)-piperidin-1-yl]-4-oxo-1,4-dihydro-[1,8]naphthyridine-3-carboxylic acid]
- MIC [1]: 0.06 µg/mL (≈ 0.153 µM)
- MIC [2]: 1 µg/mL (≈ 2.56 µM)
- MIC [8]: 32 µg/mL (≈ 81.8 µM)
- MIC [3]: 16 µg/mL (≈ 40.9 µM)

SMILES: CC1(C)CN(c2nc3c(cc2F)c(=O)c(C(=O)O)cn3C2CC2)CCC1=C(F)CN [Compound 175, 7-[4-(2-Amino-1-fluoro-ethylidene)-3,3-dimethyl-piperidin-1-yl]-1-cyclopropyl-6-fluoro-4-oxo-1,4-dihydro-[1,8]naphthyridine-3-carboxylic acid]
- MIC [1]: 0.5 µg/mL (≈ 1.19 µM)
- MIC [2]: 0.25 µg/mL (≈ 0.597 µM)
- MIC [8]: 2 µg/mL (≈ 4.78 µM)
- MIC [3]: 2 µg/mL (≈ 4.78 µM)
- MIC [4]: 1 µg/mL (≈ 2.39 µM)

SMILES: CC1(C)CN(c2nc3c(cc2F)c(=O)c(C(=O)O)cn3C2CC2)CCC1=C(Br)CN [Compound 176, 7-[4-(2-Amino-1-bromo-ethylidene)-3,3-dimethyl-piperidin-1-yl]-1-cyclopropyl-6-fluoro-4-oxo-1,4-dihydro-[1,8]naphthyridine-3-carboxylic acid]
- MIC [1]: 0.25 µg/mL (≈ 0.522 µM)
- MIC [2]: 0.12 µg/mL (≈ 0.25 µM)
- MIC [8]: 0.5 µg/mL (≈ 1.04 µM)
- MIC [3]: 1 µg/mL (≈ 2.09 µM)
- MIC [4]: 1 µg/mL (≈ 2.09 µM)
